This note sets out measurements from the METLIN SMRT retention time set (Domingo-Almenara et al. 2019).

This series can be described thus: gradient 5% acetonitrile 3 min, to 50% in 2 min, to 85% in 15 min, held 3 min, 100 µL/min. The settings on record: column: Zorbax Extend-C18 2.1 x 50 mm; eluents: water / acetonitrile, 0.1% formic acid. An outline of the steps:
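The mobile phases were water and acetonitrile, each with 0.1% formic acid, pumped at 100 μL/min through a Zorbax Extend-C18 column (2.1 × 50 mm, 1.8 μm). Pure standards were injected as mixtures of ~100 molecules and detected by a quadrupole time-of-flight mass spectrometer in positive and negative ionization mode. Retention time came from computationally picked adduct peaks, each inspected by hand.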
`CC1=C(c2ccc(F)cc2)S(=O)(=O)N=C1N1CCCN(C(=O)Cc2ccsc2)CC1` had an RP-LC retention time of 812 s.

`CC(C)n1cc(S(=O)(=O)NCc2cccc(F)c2)c2cccnc21` gave an RP-LC retention time of 926 s.

For the molecule `CCCCCCC(=O)Nc1nc(-c2ccc(Cl)cc2)cs1`, the RP-LC retention time worked out at 1270 s.

As to `CCn1c(=O)c2c(cc(C)n2C)n(CC(=O)Nc2ccc(C)cc2C)c1=O`, the RP-LC retention time was 812 s.

As to `Cc1nc(NC(=O)Cn2nc3c(cc2=O)CCCC3)sc1C`, the RP-LC retention time was found to be 721 s.

`CSc1cccc(N2C=C(C(=O)N3CCCC3)S(=O)(=O)c3ccccc32)c1` returned an RP-LC retention time of 819 s.

With `O=C(CCn1cnc2cc(-c3noc(-c4ccc(F)cc4)n3)ccc21)N1CCCC1`, the RP-LC retention time was determined as 771 s.

In turn, `Cc1ccc(N2CCN(Cc3c(C)noc3C)CC2)cc1` yielded an RP-LC retention time of 621 s.

`CCCn1cnc2cc(CNS(=O)(=O)c3ccc(F)cc3)ccc21` yielded an RP-LC retention time of 635 s.

`Cn1c(=O)c2nc(S(=O)(=O)CCC(=O)Nc3ccc(Cl)cc3)n(C)c2n(C)c1=O` came in with an RP-LC retention time of 741 s.

With `CCn1nc(C)n2cc(S(=O)(=O)NC(C)c3ccccc3)cc2c1=O` (stereo not drawn), the RP-LC retention time stood at 882 s.

`N#Cc1nc(-c2ccc(COc3ccc(Cl)cc3)o2)oc1NCCCn1ccnc1`: the RP-LC retention time came out at 627 s.

`Cn1c(N2CCN(C(=O)c3ccccc3Cl)CC2)cc(=O)n(C)c1=O`: the RP-LC retention time amounted to 622 s.

For `CCC(C)(C)NC(=O)C1CCN(S(=O)(=O)c2ccc3c(c2)NC(=O)CO3)CC1`, the RP-LC retention time turned out to be 745 s.

With `O=C(NCCc1ccccc1)Nc1nccn(-c2ccc3c(c2)CCC3)c1=O`, the RP-LC retention time was 1060 s.

Turning to `O=C(c1cc(-c2cccs2)n(C2CCS(=O)(=O)C2)n1)N1CCN(c2ccccn2)CC1` (stereo not drawn), the RP-LC retention time stood at 602 s.

Molecule `COc1ccc(CNC(=O)c2ccc3c(c2)nc2n3CCN(C(C)C)C2=O)c(OC)c1` yielded an RP-LC retention time of 708 s.

In the case of `O=S(=O)(c1ccc(-c2nnc(C3CC3)o2)o1)N1CCN(c2ccccn2)CC1`, the RP-LC retention time worked out at 632 s.

`CC(C)c1ccc(NC(=O)C2CCN(S(C)(=O)=O)c3cc(Cl)ccc3O2)cc1` (stereo not drawn): the RP-LC retention time came to 1110 s.

Consider `Nc1nnc(SCc2nnc(-c3ccc4c(c3)OCO4)o2)s1`, for which the RP-LC retention time came out at 630 s.

For the molecule `O=C(NCCC1=CCCCC1)C1CCN(C(=O)C2Sc3ccccc3NC2=O)CC1` (stereo not drawn), the RP-LC retention time is 802 s.

With `CCOc1ccc(C(C)NC(=O)C2CCN(c3cnc4nccnc4c3)CC2)cc1` (stereo not drawn), the RP-LC retention time amounted to 712 s.

For the molecule `O=C(CSc1cc(N2CCN(c3ccccc3F)CC2)ncn1)Nc1ccccc1F`, the RP-LC retention time amounted to 1190 s.

`Cc1ccc(S(=O)(=O)N(C)CC2CCOC2)cc1Cl` (stereo not drawn) came in with an RP-LC retention time of 895 s.

`COc1ccc(NC(=O)CSc2ccc(N3CCCC(C(=O)NC4CC4)C3)nn2)cc1OC` (stereo not drawn) had an RP-LC retention time of 596 s.

Take `COCCNC(=O)C1CCN(C(=O)c2cc3ccsc3n2Cc2ccc(Cl)cc2)CC1`: the RP-LC retention time was 843 s.

The molecule `CN1CCN(C(=O)C2CC(=O)N(c3ccc4c(c3)CCN4C(=O)C3CC3)C2)CC1` (stereo not drawn) showed an RP-LC retention time of 570 s.

`Cc1ccc(CN2C(=O)CN(S(C)(=O)=O)CC2(C)C(=O)NCc2ccc(F)cc2)cc1` (stereo not drawn) had an RP-LC retention time of 836 s.

In the case of `Cc1ccc(NC(=O)CNS(=O)(=O)c2cc(-c3noc(C)n3)sc2C)nc1`, the RP-LC retention time turned out to be 730 s.

The molecule `O=C(NCC1CCCO1)c1ccc2c(c1)NC(=O)C1CCC(=O)N21` (stereo not drawn) showed an RP-LC retention time of 598 s.

Regarding `CCCCNC(=O)C1CCN(c2ccc(Sc3cc(C)ccc3C)nn2)CC1`, the RP-LC retention time stood at 819 s.

With `COc1ccc(NC(=O)CSc2nc3ccccc3nc2C)cc1`, the RP-LC retention time was found to be 802 s.

For `CCCN(Cc1ccc(OC)c(OC)c1)Cc1cc(=O)n2cccc(C)c2n1`, the RP-LC retention time amounted to 620 s.

Molecule `O=C(C1CC1)N1CCc2c([nH]c3ccccc23)C1c1ccc(F)cc1` (stereo not drawn) showed an RP-LC retention time of 1050 s.

Molecule `CC(=O)Nc1ccc(-n2cnc(C(=O)NC(C)c3ccc(F)cc3)c2)nc1` (stereo not drawn) gave an RP-LC retention time of 701 s.

Take `Cc1sc(NC(=O)c2ccc(COc3ccc(F)cc3)o2)nc1-c1ccccc1`: the RP-LC retention time stood at 1180 s.

Molecule `COc1ccc(-c2nc(-c3ccc4nnn(C(C)C)c4c3)no2)cc1OC` displayed an RP-LC retention time of 1020 s.

As for `COc1ccc(C)cc1NC(=O)Cn1c(=O)c(CCC(=O)NCC(C)C)nc2ccccc21`, the RP-LC retention time was 852 s.

As to `CCOc1ccc(S(=O)(=O)Nc2ccc3nc(N4CCN(C)CC4)cc(C(=O)O)c3c2)cc1`, the RP-LC retention time was 596 s.

Regarding `Cc1cccc(S(=O)(=O)N2CC3CN(C(=O)CCC(C)C)CC(C2)O3)c1`, the RP-LC retention time stood at 871 s.

`CC(C)(Oc1ccc(Cl)cc1)C(=O)NCC1CCN(C(=O)Nc2ccc(F)cc2)CC1` gave an RP-LC retention time of 874 s.

In the case of `O=C(NCCc1cccs1)C1CCCN(c2ncnc3c2oc2ccccc23)C1` (stereo not drawn), the RP-LC retention time came to 764 s.

`Cc1ccc(CCNC(=O)CN2C(=O)C3CCCCN3c3ccc(S(=O)(=O)N(C)C)cc32)cc1` (stereo not drawn) had an RP-LC retention time of 943 s.

The molecule `O=C(NCC1CC1)c1c(-c2ccccc2)cc(=O)n2c1CCC2` came in with an RP-LC retention time of 660 s.

Turning to `CCn1c(CCC(=O)NCc2ccc(C)cc2)nc2ccccc2c1=O`, the RP-LC retention time came to 796 s.

Consider `CCN1C(=O)S/C(=C\C(=O)O)C1=O`, for which the RP-LC retention time turned out to be 638 s.

For the molecule `O=C(Nc1ccc(Cl)cc1)C1CCN(c2nccnc2Sc2ccccc2)CC1`, the RP-LC retention time is 1160 s.

Turning to `CN1CCC(CCNC(=O)C2CCc3sc(C(=O)N4CCCC4)cc3C2)CC1` (stereo not drawn), the RP-LC retention time came to 579 s.

`CC(C)Cn1cc(S(=O)(=O)NCc2ccccc2Cl)c2cccnc21` displayed an RP-LC retention time of 1020 s.

For the molecule `CC1Cc2ccccc2N1C(=O)c1ccc(=O)n(CCC(=O)N2CCN(c3ccccn3)CC2)n1` (stereo not drawn), the RP-LC retention time was 629 s.

For the molecule `Cc1ccccc1CNc1nc2ccncc2n(C(C)C)c1=O`, the RP-LC retention time came out at 745 s.

`COCc1noc([C@@H]2CC(F)(F)CN2C(=O)c2cn(C)cn2)n1` registered an RP-LC retention time of 610 s.

`CCC(CN(C)Cc1ccccc1)NC(=O)CN(c1ccccc1)S(=O)(=O)N(C)C` (stereo not drawn): the RP-LC retention time worked out at 686 s.

For the molecule `CS(=O)(=O)N1CCC(C(=O)NCc2ccsc2)CC1`, the RP-LC retention time came out at 616 s.

Consider `CCn1nccc1-c1cccc(-c2noc(CNS(=O)(=O)c3ccccc3)n2)c1`, for which the RP-LC retention time came to 884 s.

Regarding `CCc1ccccc1NC(=O)CSc1nnc2ccc(C(=O)Nc3cccc(F)c3)cn12`, the RP-LC retention time was 776 s.

`CC(C)c1ccc(OCC(=O)Nc2nnc(-c3ccc(Br)o3)o2)cc1`: the RP-LC retention time turned out to be 906 s.

For `CCCN1C(=O)c2cc(S(=O)(=O)Nc3ccc(F)c(F)c3)ccc2Oc2cccnc21`, the RP-LC retention time came out at 1100 s.

`Cc1cccc(C)c1NC(=O)Nc1ccc(S(N)(=O)=O)cc1` yielded an RP-LC retention time of 751 s.

In turn, `CCC(Sc1nnc2c(n1)[nH]c1ccccc12)C(=O)Nc1nc(-c2ccccc2)cs1` (stereo not drawn) came in with an RP-LC retention time of 1050 s.

The molecule `O=C(Cc1csc(-n2cccc2)n1)N1CCC(c2nc3ccccc3[nH]2)CC1` registered an RP-LC retention time of 558 s.

`C=CCn1c(C)c(CC(=O)Nc2cccc(C)c2)c(=O)n2nc(-c3ccc(C)cc3)nc12` came in with an RP-LC retention time of 989 s.

Regarding `CCCNC(=O)C1CCCN(c2nc3ncn(CC(=O)NCCC4=CCCCC4)c(=O)c3s2)C1` (stereo not drawn), the RP-LC retention time came to 732 s.

Regarding `CCC(CO)NC(=O)C(=O)NCCC1=CCCCC1` (stereo not drawn), the RP-LC retention time is 724 s.

Regarding `O=C(Cn1ncc2c3ccccc3n(Cc3ccccc3)c2c1=O)N1CCN(c2ccccn2)CC1`, the RP-LC retention time stood at 693 s.

In turn, `CC(C)n1cnnc1CC1CCN(C(=O)C2CCN(S(=O)(=O)N3CCOCC3)CC2)CC1` showed an RP-LC retention time of 614 s.

`CCOc1cc(CNC(=O)c2nc(N3CCOCC3)c3ccccc3n2)ccc1OC` yielded an RP-LC retention time of 660 s.

For the molecule `CCOC(=O)c1ccc2nc(NC(=O)c3ccn(C)n3)sc2c1`, the RP-LC retention time is 828 s.

Molecule `COc1ccc(Cc2nc(-c3ccc4c(c3)nnn4CCC(=O)N3CCCC3)no2)cc1` displayed an RP-LC retention time of 839 s.

In turn, `CC(C)CC(=O)N1CCCC(c2nc(CCNC(=O)C3CCC3)cs2)C1` (stereo not drawn) had an RP-LC retention time of 734 s.

In the case of `CNC(=O)C1CCCN(c2nc3ncn(CC(=O)Nc4cccc(C(F)(F)F)c4)c(=O)c3s2)C1` (stereo not drawn), the RP-LC retention time was found to be 704 s.

In turn, `COc1ccccc1N1CCN(C(=O)CCc2nnc3c4cc(-c5ccccc5)nn4ccn23)CC1` yielded an RP-LC retention time of 763 s.

In the case of `Cc1cc2nn(CC(=O)Nc3cc(F)cc(F)c3)c(=O)n2c(Nc2ccc(F)c(C)c2)n1`, the RP-LC retention time came to 1070 s.

`O=C1CCCN1Cc1nc(-c2ccc(F)c(Cl)c2)no1` had an RP-LC retention time of 853 s.

In turn, `CCc1ccc(C2=C(C)C(N3CCCN(C(=O)NC(C)(C)C)CC3)=NS2(=O)=O)cc1` had an RP-LC retention time of 928 s.

`O=C(N[C@@H]1CN(c2ncccn2)C[C@H]1CO)c1ccco1` showed an RP-LC retention time of 566 s.

On to `CCc1nnc(-c2ccc3ccn(CC(=O)Nc4ccc(CN5CCN(CC)CC5)cc4)c3c2)o1`, for which the RP-LC retention time turned out to be 612 s.

Take `CC(C)(C)C(=O)Nc1ccc2nc(N3CCN(c4ccccc4Cl)CC3)cc(C(=O)O)c2c1`: the RP-LC retention time was determined as 750 s.
